According to patent US10202378B2, “Therapeutic compounds and uses thereof” (GENENTECH, INC., priority 2015, dated 2019):

Legend:
TAF1-BD1 = TAF1-BD1 (Homo sapiens, UniProt P21675); experiment: TAF1-BD1 TR-FRET Binding Assay; settings: read-out: TAF1-BD1 HTRF IC50
TAF1-BD2 = TAF1-BD2 (Homo sapiens, UniProt P21675); experiment: TAF1-BD2 TR-FRET Binding Assay; settings: read-out: TAF1-BD2 HTRF IC50

SMILES	IC50 (TAF1-BD1)	IC50 (TAF1-BD2)
Cc1cc([C@](C)(O)C#Cc2cn(C)c(=O)c3[nH]c(C)c(C(=O)OC(C)C)c23)no1 [Example 157, isopropyl 4-[(3R)-3-hydroxy-3-(5-methylisoxazol-3-yl)but-1-ynyl]-2,6-dimethyl-7-oxo-1H-pyrrolo[2,3-c]pyridine-3-carboxylate]	233 nM	71.2 nM
Cc1cc([C@](C)(O)C#Cc2cn(C)c(=O)c3[nH]c(C)c(C(=O)OCC(C)C)c23)no1 [Example 158, isobutyl 4-[(3R)-3-hydroxy-3-(5-methylisoxazol-3-yl)but-1-ynyl]-2,6-dimethyl-7-oxo-1H-pyrrolo[2,3-c]pyridine-3-carboxylate]	112 nM	50.2 nM
Cc1[nH]c2c(=O)n(C)cc(C#CC(C)(O)c3ccccc3)c2c1C(=O)OCC(C)C (stereo not shown) [Example 160, isobutyl 4-(3-hydroxy-3-phenyl-but-1-ynyl)-2,6-dimethyl-7-oxo-1H-pyrrolo[2,3-c]pyridine-3-carboxylate]	130 nM	32.4 nM
Cc1[nH]c2c(=O)n(C)cc(C#CC(C)(O)c3ccccc3)c2c1C(=O)OC(C)(C)C (stereo not shown) [Example 162, tert-butyl 4-(3-hydroxy-3-phenyl-but-1-ynyl)-2,6-dimethyl-7-oxo-1H-pyrrolo[2,3-c]pyridine-3-carboxylate]	318 nM	54.4 nM
Cc1[nH]c2c(=O)n(C)cc(C#CC(C)(C)O)c2c1C(=O)OC(C)(C)CC#N [Example 163, (2-cyano-1,1-dimethyl-ethyl) 4-(3-hydroxy-3-methyl-but-1-ynyl)-2,6-dimethyl-7-oxo-1H-pyrrolo[2,3-c]pyridine-3-carboxylate]	283 nM	27.3 nM
CC(=O)NCCC(C)(C)OC(=O)c1c(C)[nH]c2c(=O)n(C)cc(C#CC(C)(C)O)c12 [Example 164, (3-acetamido-1,1-dimethyl-propyl) 4-(3-hydroxy-3-methyl-but-1-ynyl)-2,6-dimethyl-7-oxo-1H-pyrrolo[2,3-c]pyridine-3-carboxylate]	514 nM	48.5 nM
Cc1[nH]c2c(=O)n(C)cc(C#CC(C)(C)O)c2c1C(=O)OC(C)(C)CCN [Example 165, (3-amino-1,1-dimethyl-propyl) 4-(3-hydroxy-3-methyl-but-1-ynyl)-2,6-dimethyl-7-oxo-1H-pyrrolo[2,3-c]pyridine-3-carboxylate]	551 nM	21.7 nM
Cc1[nH]c2c(=O)n(C)cc(C#CC(O)(c3ccccc3)C(F)(F)F)c2c1C(=O)OCCC#N (stereo not shown) [Example 166, 2-cyanoethyl 2,6-dimethyl-7-oxo-4-(4,4,4-trifluoro-3-hydroxy-3-phenyl-but-1-ynyl)-1H-pyrrolo[2,3-c]pyridine-3-carboxylate]	214 nM	31.2 nM
CCNC(=O)c1c(C)[nH]c2c(=O)n(C)cc(C#CC(C)(C)O)c12 [Example 168, N-ethyl-4-(3-hydroxy-3-methyl-but-1-ynyl)-2,6-dimethyl-7-oxo-1H-pyrrolo[2,3-c]pyridine-3-carboxamide]	5790 nM	1630 nM
Cc1[nH]c2c(=O)n(C)cc(C#CC(C)(C)O)c2c1C(=O)NC(C)C [Example 169, 4-(3-hydroxy-3-methyl-but-1-ynyl)-N-isopropyl-2,6-dimethyl-7-oxo-1H-pyrrolo[2,3-c]pyridine-3-carboxamide]	5310 nM	2670 nM
Cc1[nH]c2c(=O)n(C)cc(C#CC(C)(C)O)c2c1C(=O)NC(C)(C)C [Example 170, N-tert-butyl-4-(3-hydroxy-3-methyl-but-1-ynyl)-2,6-dimethyl-7-oxo-1H-pyrrolo[2,3-c]pyridine-3-carboxamide]	3620 nM	347 nM
Cc1[nH]c2c(=O)n(C)cc(C#CC(C)(O)C3CC3)c2c1-c1nnc(C(C)(C)O)o1 (stereo not shown) [Example 172, 4-(3-cyclopropyl-3-hydroxy-but-1-ynyl)-3-(5-(1-hydroxy-1-methyl-ethyl)-1,3,4-oxadiazol-2-yl)-2,6-dimethyl-1H-pyrrolo[2,3-c]pyridin-7-one]	451 nM	110 nM
CC(=O)NCc1nnc(-c2c(C)[nH]c3c(=O)n(C)cc(C#CC(O)(c4ccccc4)C(F)(F)F)c23)o1 (stereo not shown) [Example 173, N-[[5-[2,6-dimethyl-7-oxo-4-(4,4,4-trifluoro-3-hydroxy-3-phenyl-but-1-ynyl)-1H-pyrrolo[2,3-c]pyridin-3-yl]-1,3,4-oxadiazol-2-yl]methyl]acetamide]	490 nM	117 nM
CC(=O)NCc1nnc(-c2c(C)[nH]c3c(=O)n(C)cc(C#CC(C)(O)C4CC4)c23)o1 (stereo not shown) [Example 174, N-[[5-[4-(3-cyclopropyl-3-hydroxy-but-1-ynyl)-2,6-dimethyl-7-oxo-1H-pyrrolo[2,3-c]pyridin-3-yl]-1,3,4-oxadiazol-2-yl]methyl]acetamide]	521 nM	86.4 nM
Cc1[nH]c2c(=O)n(C)cc(C#CC(C)(O)C3CC3)c2c1-c1nnc(C2CCOC2)o1 (stereo not shown) [Example 175, 4-(3-cyclopropyl-3-hydroxy-but-1-ynyl)-2,6-dimethyl-3-(5-tetrahydrofuran-3-yl-1,3,4-oxadiazol-2-yl)-1H-pyrrolo[2,3-c]pyridin-7-one]	248 nM	46.7 nM
Cc1[nH]c2c(=O)n(C)cc(C#CC(C)(O)C3CC3)c2c1-c1nnc(C(C)CN2CCOCC2)o1 (stereo not shown) [Example 176, 4-(3-cyclopropyl-3-hydroxy-but-1-ynyl)-2,6-dimethyl-3-[5-(1-methyl-2-morpholino-ethyl)-1,3,4-oxadiazol-2-yl]-1H-pyrrolo[2,3-c]pyridin-7-one]	241 nM	38.3 nM
Cc1nnc(-c2c(C)[nH]c3c(=O)n(C)cc(C#CC(C)(C)O)c23)o1 [Example 177, 4-(3-hydroxy-3-methyl-but-1-ynyl)-2,6-dimethyl-3-(5-methyl-1,3,4-oxadiazol-2-yl)-1H-pyrrolo[2,3-c]pyridin-7-one]	543 nM	50.7 nM

Continued, values first:

IC50 (TAF1-BD1)	IC50 (TAF1-BD2)	SMILES
725 nM	88.1 nM	Cc1[nH]c2c(=O)n(C)cc(C#CC(O)(c3ccccc3)C(F)(F)F)c2c1-c1nnc(CCN(C)C)o1 (stereo not shown) [Example 178, 3-[5-[2-(dimethylamino)ethyl]-1,3,4-oxadiazol-2-yl]-2,6-dimethyl-4-(4,4,4-trifluoro-3-hydroxy-3-phenyl-but-1-ynyl)-1H-pyrrolo[2,3-c]pyridin-7-one]
137 nM	29.2 nM	Cc1[nH]c2c(=O)n(C)cc(C#CC(C)(O)C3CC3)c2c1-c1nnc(CC(C)C)o1 (stereo not shown) [Example 179, 4-(3-cyclopropyl-3-hydroxy-but-1-ynyl)-3-(5-isobutyl-1,3,4-oxadiazol-2-yl)-2,6-dimethyl-1H-pyrrolo[2,3-c]pyridin-7-one]
249 nM	47.1 nM	Cc1[nH]c2c(=O)n(C)cc(C#CC(O)(c3ccccc3)C(F)(F)F)c2c1-c1nnc(C2CC2)o1 (stereo not shown) [Example 180, 3-(5-cyclopropyl-1,3,4-oxadiazol-2-yl)-2,6-dimethyl-4-(4,4,4-trifluoro-3-hydroxy-3-phenyl-but-1-ynyl)-1H-pyrrolo[2,3-c]pyridin-7-one]
199 nM	44.8 nM	CCc1nnc(-c2c(C)[nH]c3c(=O)n(C)cc(C#CC(C)(O)C4CC4)c23)o1 (stereo not shown) [Example 181, 4-(3-cyclopropyl-3-hydroxy-but-1-ynyl)-3-(5-ethyl-1,3,4-oxadiazol-2-yl)-2,6-dimethyl-1H-pyrrolo[2,3-c]pyridin-7-one]
285 nM	53.5 nM	Cc1[nH]c2c(=O)n(C)cc(C#CC(C)(O)C3CC3)c2c1-c1nnco1 (stereo not shown) [Example 182, 4-(3-cyclopropyl-3-hydroxy-but-1-ynyl)-2,6-dimethyl-3-(1,3,4-oxadiazol-2-yl)-1H-pyrrolo[2,3-c]pyridin-7-one]
598 nM	50.2 nM	Cc1[nH]c2c(=O)n(C)cc(C#CC(O)(c3ccccc3)C(F)(F)F)c2c1-c1nnco1 (stereo not shown) [Example 183, 2,6-dimethyl-3-(1,3,4-oxadiazol-2-yl)-4-(4,4,4-trifluoro-3-hydroxy-3-phenyl-but-1-ynyl)-1H-pyrrolo[2,3-c]pyridin-7-one]
327 nM	62.7 nM	Cc1nnc(-c2c(C)[nH]c3c(=O)n(C)cc(C#CC(O)(c4ccccc4)C(F)(F)F)c23)o1 (stereo not shown) [Example 184, 2,6-dimethyl-3-(5-methyl-1,3,4-oxadiazol-2-yl)-4-(4,4,4-trifluoro-3-hydroxy-3-phenyl-but-1-ynyl)-1H-pyrrolo[2,3-c]pyridin-7-one]
216 nM	58 nM	Cc1[nH]c2c(=O)n(C)cc(C#CC(C)(O)C3CC3)c2c1-c1nnc(C(C)(C)C)o1 (stereo not shown) [Example 187, 3-(5-tert-butyl-1,3,4-oxadiazol-2-yl)-4-(3-cyclopropyl-3-hydroxy-but-1-ynyl)-2,6-dimethyl-1H-pyrrolo[2,3-c]pyridin-7-one]
385 nM	86.2 nM	Cc1[nH]c2c(=O)n(C)cc(C#CC(O)(c3ccccc3)C(F)(F)F)c2c1-c1nnc(C(C)(C)C)o1 (stereo not shown) [Example 188, 3-(5-tert-butyl-1,3,4-oxadiazol-2-yl)-2,6-dimethyl-4-(4,4,4-trifluoro-3-hydroxy-3-phenyl-but-1-ynyl)-1H-pyrrolo[2,3-c]pyridin-7-one]
239 nM	49.9 nM	Cc1cc([C@](C)(O)C#Cc2cn(C)c(=O)c3[nH]c(C)c(-c4nnc(C5CC5)o4)c23)no1 [Example 190, 3-(5-cyclopropyl-1,3,4-oxadiazol-2-yl)-4-[(3R)-3-hydroxy-3-(5-methylisoxazol-3-yl)but-1-ynyl]-2,6-dimethyl-1H-pyrrolo[2,3-c]pyridin-7-one]
270 nM	36.4 nM	Cc1[nH]c2c(=O)n(C)cc(C#CC(C)(O)C3CC3)c2c1-c1nnc(C(C)C)o1 (stereo not shown) [Example 191, 4-(3-cyclopropyl-3-hydroxy-but-1-ynyl)-3-(5-isopropyl-1,3,4-oxadiazol-2-yl)-2,6-dimethyl-1H-pyrrolo[2,3-c]pyridin-7-one]
335 nM	61.6 nM	Cc1nnc(-c2c(C)[nH]c3c(=O)n(C)cc(C#CC(C)(O)C4CC4)c23)o1 (stereo not shown) [Example 192, 4-(3-cyclopropyl-3-hydroxy-but-1-ynyl)-2,6-dimethyl-3-(5-methyl-1,3,4-oxadiazol-2-yl)-1H-pyrrolo[2,3-c]pyridin-7-one]
